From US10294202B2, “Pyrrolidinones as herbicides” (FMC Corporation, priority 2013, dated 2019)

What was measured:
[1] = test system: nightshade; experiment: Test C pre-/postemergence herbicide test; type: in vivo, Solanum ptycanthum; conditions: Preemergence
Description: Seeds of plant species selected from blackgrass (Alopecurus myosuroides), ryegrass, Italian (Italian ryegrass, Lolium multiflorum), wheat (winter wheat, Triticum aestivum), galium (catchweed bedstraw, Galium aparine), corn (Zea mays), crabgrass, large (large crabgrass, Digitaria sanguinalis), foxtail, giant (giant foxtail, Setaria faberii), johnsongrass (Sorghum halepense), lambsquarters (Chenopodium album), morningglory (Ipomoea coccinea), nutsedge, yellow (yellow nutsedge, Cyperus esculentus), pigweed (Amaranthus retroflexus), ragweed (common ragweed, Ambrosia elatior), soybean (Glycine max), barnyardgrass (Echinochloa crus-galli), oilseed rape (Brassica napus), waterhemp (common waterhemp, Amaranthus rudis), kochia (Kochia scoparia), oat, wild (wild oat, Avena fatua), surinam grass (Brachiaria decumbens), foxtail, green (green foxtail, Setaria viridis), goosegrass (Eleusine indica), bromegrass, downy (downy bromegrass, Bromus tectorum), nightshade (eastern black nightshade, Solanum ptycanthum), cocklebur (common cocklebur, Xanthium strumarium), cupgrass, woolly (woolly cupgrass, Eriochloa villosa), bermudagrass (Cynodon dactylon), sunflower, (common oilseed sunflower, Helianthus annuus), Russian thistle (Salsola kali) and velvetleaf (Abutilon theophrasti) were planted into a blend of loam soil and sand and treated preemergence with test chemicals formulated in a non-phytotoxic solvent mixture which included a surfactant. At the same time, plants selected from these crop and weed species and also barley (winter barley, Hordeum vulgare), […]), chickweed (common chickweed, Stellaria media), deadnettle (henbit deadnettle, Lamium amplexicaule), and canarygrass (littleseed canarygrass, Phalaris minor) were planted in pots containing Redi-Earth® planting medium (Scotts Company, 14111 Scottslawn Road, Marysville, Ohio 43041) comprising spaghnum peat moss, vermiculite, wetting agent and starter nutrients and treated with postemergence applications of test chemicals formulated in the same manner. Plants ranged in height from 2 to 18 cm (1- to 4-leaf stage) for postemergence treatments. Treated plants and controls were maintained in a greenhouse for 13 to 15 days, after which time all species were compared to controls and visually evaluated. Plant response ratings, summarized in Table C, are based on a scale of 0 to 100 where 0 is no effect and 100 is complete control. A dash (-) response means no test result.

[2] = test system: sandbur; experiment: Test E preemergence herbicide test; type: in vivo, Cenchrus echinatus; parameters: key: 0 = no effect, 100 = complete control
Description: (§1) Seeds of plant species selected from corn (Zea mays), soybean (Glycine max), velvetleaf (Abutilon theophrasti), lambsquarters (Chenopodium album), wild poinsettia (Euphorbia heterophylla), pigweed, palmer (palmer pigweed, Amaranthus palmeri), waterhemp (common waterhemp, Amaranthus rudis), surinam grass (Brachiaria decumbens), crabgrass, large (large crabgrass, Digitaria sanguinalis), crabgrass, Brazil (Brazilian crabgrass, Digitaria horizontalis), panicum, fall (fall panicum, Panicum dichotomiflorum), foxtail, giant (giant foxtail, Setaria faberii), foxtail, green (green foxtail, Setaria viridis), goosegrass (Eleusine indica), johnsongrass (Sorghum halepense), ragweed (common ragweed, Ambrosia elatior), barnyardgrass (Echinochloa crus-galli), sandbur (southern sandbur, Cenchrus echinatus), arrowleaf […] rhombifolia), ryegrass, Italian (Italian ryegrass, Lolium multiflorum), dayflower, VA (Virginia dayflower, Commelina virginica), field bindweed (Convolvulus arvensis), morningglory (Ipomoea coccinea), nightshade (eastern black nightshade, Solanum ptycanthum), kochia (Kochia scoparia), nutsedge, yellow (yellow nutsedge, Cyperus esculentus), cocklebur (common cocklebur, Xanthium strumarium), smartweed (ladysthumb smartweed, Polygonum Persicaria) and beggarticks (hairy beggarticks, Bidens pilosa), were planted into a silt loam soil and treated preemergence with test chemicals formulated in a non-phytotoxic solvent mixture which included a surfactant. Treated plants and controls were maintained in a greenhouse for 21 days, after which time all species were compared to controls and visually evaluated. Plant response ratings, summarized in Table E, are based on a scale of 0 to 100 where 0 is no effect and 100 is complete control. A dash (-) response means no test result.

[3] = test system: surinam grass; experiment: Test E preemergence herbicide test; type: in vivo, Brachiaria decumbens; parameters: key: 0 = no effect, 100 = complete control
Description: as §1

[4] = test system: barnyardgrass; experiment: Test F flood (paddy) test; type: in vivo, Echinochloa crus-galli; conditions: 21 d, scale 0-100
Summary of the method: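 Compounds were applied directly to paddy water held 3 cm above silt loam soil, with rice and weeds at the 2.0–2.5-leaf stage, grown in a greenhouse at 30/27° C under a 16-h photoperiod. Visual ratings (0 no effect to 100 complete control) were made against untreated controls after 21 d.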

[5] = 125 g ai/ha, scale 0 to 100 (0 no effect, 100 complete control)

Compound | Plant response rating, Nightshade ([1]; 62 g ai/ha, scale 0 to 100) | Plant response rating, Nightshade [1, 5] | Plant response rating, Sandbur ([2]; 31 g ai/ha) | Plant response rating, Sandbur ([2]; 62 g ai/ha) | Plant response rating, Sandbur ([2]; 125 g ai/ha) | Plant response rating, Sandbur ([2]; 250 g ai/ha) | Plant response rating, Surinam Grass ([3]; 31 g ai/ha) | Plant response rating, Surinam Grass ([3]; 62 g ai/ha) | Plant response rating, Surinam Grass ([3]; 125 g ai/ha) | Plant response rating, Surinam Grass ([3]; 250 g ai/ha) | Plant response rating, Barnyardgrass ([4]; 125 g ai/ha) | Plant response rating, Barnyardgrass ([4]; 250 g ai/ha) | Plant response rating, Barnyardgrass ([4]; 500 g ai/ha) | other results
O=C1NCC(c2cc(F)c(F)c(F)c2)C1C(=O)Nc1cccc(F)c1F (stereo not drawn) [Compound 48] | 0 | 0 | – | – | – | – | – | – | – | – | – | – | – | Plant response rating, Nightshade ([1]; 16 g ai/ha, scale 0 to 100): 0
O=C1NCC(c2ccc(Cl)c(F)c2)C1C(=O)Nc1cccc(F)c1F (stereo not drawn) [Compound 52] | 0 | 0 | – | – | – | – | – | – | – | – | – | – | – | –
O=C1NCC(c2ccc(F)c(Cl)c2)C1C(=O)Nc1ccccc1F (stereo not drawn) [Compound 60] | 0 | 0 | – | – | – | – | – | – | – | – | – | – | – | –
O=C1NCC(c2cccc(OC(F)(F)F)c2)C1C(=O)Nc1ccccc1F (stereo not drawn) [Compound 69] | 0 | 0 | – | – | – | – | – | – | – | – | – | – | – | Nightshade plant response rating ([1]; 31 g ai/ha, scale 0 to 100, 0 is no effect and 100 is complete control): 0; Plant response rating (scale of 0 to 100), Nightshade ([1]; 250 g ai/ha): 0
O=C1NCC(c2ccc(C(F)(F)F)cc2)C1C(=O)Nc1cccc(F)c1F (stereo not drawn) [Compound 80, N-(2,3-difluorophenyl)-2-oxo-4-[4-(trifluoromethyl)phenyl]-3-pyrrolidinecarboxamide] | – | – | 30 | 50 | 65 | 70 | 40 | 50 | 60 | 70 | – | – | – | Plant response rating, Sandbur ([2]; 16 g ai/ha): 20; Plant response rating, Surinam Grass ([3]; 16 g ai/ha): 30
O=C1NC[C@H](c2cccc(C(F)(F)F)c2)[C@H]1C(=O)Nc1ccccc1F [Compound 204, (3R,4S)—N-(2-fluorophenyl)-2-oxo-4-[3-(trifluoromethyl)phenyl]-3-pyrrolidinecarboxamide] | – | – | 20 | 50 | 75 | 80 | 35 | 60 | 98 | 95 | 100 | 100 | 100 | –
O=C1NC[C@H](c2cccc(C(F)(F)F)c2)[C@H]1C(=O)Nc1cccc(F)c1F [Compound 206] | – | – | 65 | 80 | 95 | 98 | 50 | 95 | 85 | 98 | 100 | 100 | 100 | Plant response rating, Barnyardgrass ([4]; 64 g ai/ha): 90
CN1CC(c2ccc(F)c(F)c2)C(C(=O)Nc2cccc(F)c2F)C1=O (stereo not drawn) [Compound 303] | – | – | – | – | – | – | – | – | – | – | 100 | 100 | 100 | Plant response rating, Barnyardgrass ([4]; 62 g ai/ha): 100
